In patent US20090325964A1, “Piperazine Metabotropic Glutamate Receptor 5 (MGLUR5) Negative Allosteric Modulators For Anxiety/Depression” (Wyeth, priority 2008, published 2009):
Read-outs that look alike come from different tables or passages of the source.

Columns and labels:
rat mGluR5 receptor = target: T1, rat mGluR5 receptor (Rattus norvegicus, UniProt P31424); experiment: [3H]-MPEP displacement binding assay, HEK-293 cell membranes expressing rat mGluR5; conditions: [3H]-MPEP displacement, read-out: Median Ki
T1 construct: expressed in transfected cells; host or cells: HEK-293
T1 sequence (P31424 21-1203): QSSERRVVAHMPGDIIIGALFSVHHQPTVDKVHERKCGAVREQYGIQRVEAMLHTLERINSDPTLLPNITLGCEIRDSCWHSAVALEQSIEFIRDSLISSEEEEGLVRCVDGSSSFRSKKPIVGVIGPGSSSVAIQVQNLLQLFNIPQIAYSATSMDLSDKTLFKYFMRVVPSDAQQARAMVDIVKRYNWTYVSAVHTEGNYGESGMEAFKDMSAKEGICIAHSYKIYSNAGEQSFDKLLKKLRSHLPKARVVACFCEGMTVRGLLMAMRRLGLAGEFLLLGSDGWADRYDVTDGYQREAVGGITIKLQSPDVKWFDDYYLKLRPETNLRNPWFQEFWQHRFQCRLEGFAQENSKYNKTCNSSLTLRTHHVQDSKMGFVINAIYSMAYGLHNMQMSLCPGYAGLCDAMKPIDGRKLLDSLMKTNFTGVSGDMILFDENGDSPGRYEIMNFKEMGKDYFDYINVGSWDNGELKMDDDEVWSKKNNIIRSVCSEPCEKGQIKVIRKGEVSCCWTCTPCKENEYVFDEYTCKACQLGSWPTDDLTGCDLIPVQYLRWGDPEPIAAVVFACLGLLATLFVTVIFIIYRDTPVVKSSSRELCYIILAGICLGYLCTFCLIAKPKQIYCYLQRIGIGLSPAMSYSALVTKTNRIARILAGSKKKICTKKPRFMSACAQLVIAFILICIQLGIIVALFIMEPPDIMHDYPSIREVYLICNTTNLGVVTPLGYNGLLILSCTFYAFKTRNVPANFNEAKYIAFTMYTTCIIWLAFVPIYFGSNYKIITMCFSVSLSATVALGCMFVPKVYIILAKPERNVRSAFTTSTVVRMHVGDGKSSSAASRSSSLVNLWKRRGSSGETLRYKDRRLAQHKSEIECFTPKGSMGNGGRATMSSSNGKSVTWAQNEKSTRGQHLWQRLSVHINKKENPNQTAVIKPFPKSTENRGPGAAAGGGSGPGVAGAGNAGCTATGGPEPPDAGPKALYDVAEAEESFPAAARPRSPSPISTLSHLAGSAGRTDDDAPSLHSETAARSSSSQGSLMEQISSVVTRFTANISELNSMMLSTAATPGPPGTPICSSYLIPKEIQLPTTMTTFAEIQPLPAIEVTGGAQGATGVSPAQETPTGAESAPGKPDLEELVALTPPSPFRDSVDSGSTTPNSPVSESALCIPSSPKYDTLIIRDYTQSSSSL
Summary of the method: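 Membranes from HEK-293 cells expressing rat mGluR5 (12-25 μg protein), incubated 60 min at room temperature with 4 nM [3H]-MPEP in 50 mM Tris pH 7.5, then filtered. Nonspecific binding defined with 10 μM MPEP.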

mGluR5 [1] = target: T2, mGluR5 (Rattus norvegicus, UniProt P31424); experiment: IC50 column under 'Biological Activity' (assay not identified in the shown text; not the binding Ki)
T2 sequence (P31424 21-1203): as above

mGluR5 [2] = target: T2, mGluR5; experiment: as above; remark: listed apart in the source

## O=C(c1ccc(C(F)(F)F)c(C#Cc2ccccn2)c1)N1CCN(c2ccccn2)CC1 [Compound 369, 1-pyridin-2-yl-4-{[3-(pyridin-2-ylethynyl)-4-(trifluoromethyl)phenyl]carbonyl}piperazine]
Rat mGluR5 receptor; rat mGluR5 membranes
  Ki: 31 nM
mGluR5 [1]
  IC50: 30 nM

## O=C(c1ccc(C(F)(F)F)c(C#Cc2ccccn2)c1)N1CCN(c2noc3ccccc23)CC1 [Compound 374, 3-(4-{[3-(pyridin-2-ylethynyl)-4-(trifluoromethyl)phenyl]carbonyl}piperazin-1-yl)-1,2-benzisoxazole]
Rat mGluR5 receptor; rat mGluR5 membranes
  Ki: 4 nM
mGluR5 [1]
  IC50: 53 nM

## O=C(c1ccc(Cl)c(C#Cc2ccccn2)c1)N1CCN(c2nccs2)CC1 [Compound 390, 1-[4-chloro-3-(pyridin-2-ylethynyl)benzoyl]-4-(1,3-thiazol-2-yl)piperazine]
Rat mGluR5 receptor; rat mGluR5 membranes
  Ki: 7 nM
mGluR5 [1]
  IC50: 39 nM

## N#Cc1nccnc1N1CCN(C(=O)c2ccc(Cl)c(C#Cc3ccccn3)c2)CC1 [Compound 396, 3-(4-{[4-chloro-3-(pyridin-2-ylethynyl)phenyl]carbonyl}piperazin-1-yl)pyrazine-2-carbonitrile]
Rat mGluR5 receptor; rat mGluR5 membranes
  Ki: 17 nM
mGluR5 [1]
  IC50: 47 nM

## O=C(c1ccc(OC(F)F)c(C#Cc2ccccn2)c1)N1CCN(c2ccccn2)CC1 [Compound 385, 1-{[4-(Difluoromethoxy)-3-(pyridin-2-ylethynyl)phenyl]carbonyl}-4-pyridin-2-ylpiperazin]
Rat mGluR5 receptor; rat mGluR5 membranes
  Ki: 7 nM
mGluR5 [1]
  IC50: 13 nM

## O=C(c1ccc(Cl)c(C#Cc2ccccn2)c1)N1CCN(c2cccc(O)c2)CC1 [Compound 393, 3-(4-{[4-chloro-3-(pyridin-2-ylethynyl)phenyl]carbonyl}piperazin-1-yl)phenol]
Rat mGluR5 receptor; rat mGluR5 membranes
  Ki: 12 nM
mGluR5 [1]
  IC50: 144 nM

## N#Cc1cccnc1N1CCN(C(=O)c2ccc(Cl)c(C#Cc3ccccn3)c2)CC1 [Compound 389, 2-{4-[4-chloro-3-(pyridin-2-ylethynyl)benzoyl]piperazin-1-yl}nicotinonitrile]
Rat mGluR5 receptor; rat mGluR5 membranes
  Ki: 63 nM
mGluR5 [1]
  IC50: 239 nM

## O=C(c1ccc(Cl)c(C#Cc2ccccn2)c1)N1CCN(c2cnccn2)CC1 [Compound 388, 2-{4-[4-chloro-3-(pyridin-2-ylethynyl)benzoyl]piperazin-1-yl}pyrazine]
Rat mGluR5 receptor; rat mGluR5 membranes
  Ki: 13 nM
mGluR5 [1]
  IC50: 94 nM

## COc1nc(N2CCN(C(=O)c3ccc(OC(F)F)c(C#Cc4ccccn4)c3)CC2)ncc1Br [Compound 382, 5-bromo-2-(4-{[4-(difluoromethoxy)-3-(pyridin-2-ylethynyl)phenyl]carbonyl}piperazin-1-yl)-4-methoxy pyrimidine]
Rat mGluR5 receptor; rat mGluR5 membranes
  Ki: 35 nM
mGluR5 [1]
  IC50: 104 nM

## O=C(c1ccc(C(F)(F)F)c(C#Cc2ccccn2)c1)N1CCN(C(=O)c2ccco2)CC1 [Compound 375, 1-(furan-2-ylcarbonyl)-4-{[3-(pyridin-2-ylethynyl)-4-(trifluoromethyl)phenyl]carbonyl}piperazine]
Rat mGluR5 receptor; rat mGluR5 membranes
  Ki: 29 nM
mGluR5 [1]
  IC50: 40 nM

## O=C(c1ccc(Cl)c(C#Cc2ccccn2)c1)N1CCN(c2ncccc2Cl)CC1 [Compound 394, 1-(3-chloropyridin-2-yl)-4-{[4-chloro-3-(pyridin-2-ylethynyl)phenyl]carbonyl}piperazine]
Rat mGluR5 receptor; rat mGluR5 membranes
  Ki: 21 nM
mGluR5 [1]
  IC50: 145 nM

## COc1cccc(N2CCN(C(=O)c3ccc(Cl)c(C#Cc4ccccn4)c3)CC2)c1 [Compound 395, 1-{[4-chloro-3-(pyridin-2-ylethynyl)phenyl]carbonyl}-4-(3-methoxyphenyl)piperazine]
Rat mGluR5 receptor; rat mGluR5 membranes
  Ki: 19 nM
mGluR5 [1]
  IC50: 113 nM

## O=C(c1ccc(Cl)c(C#Cc2ccccn2)c1)N1CCN(c2ccccn2)CC1 [Compound 386, 1-[4-chloro-3-(pyridin-2-ylethynyl)benzoyl]-4-pyridin-2-ylpiperazin]
Rat mGluR5 receptor; rat mGluR5 membranes
  Ki: 3 nM
mGluR5 [1]
  IC50: 39 nM

## COc1ccc(C(=O)N2CCN(S(=O)(=O)c3ccc(Cl)cc3)CC2)cc1C#Cc1ccccn1 [Compound 243, 1-[(4-chlorophenyl)sulfonyl]-4-[4-methoxy-3-(pyridin-2-ylethynyl)benzoyl]piperazine]
Rat mGluR5 receptor; rat mGluR5
  Ki: 14 nM
mGluR5 [2]
  IC50: 154 nM
